# In US20190374576A1, “VIRAL METHODS OF T CELL THERAPY” (Intima Bioscience, Inc., priority 2016, published 2019):
# Key:
# Assay in all cases: Validation of gRNAs: Surveyor digest, gel electrophoresis, densitometry in HEK293T cells
# Format in all cases: cell-based, human
# CCR5 = CCR5 target gene site, 3 days
# Procedure: (§1) HEK293T cells were plated out at a density of 1×10^5 cells per well in a 24 well plate. 150 uL of Opti-MEM medium was combined with 1.5 ug of gRNA plasmid, 1.5 ug of Cas9 plasmid. Another 150 uL of Opti-MEM medium was combined with 5 ul of Lipofectamine 2000 Transfection reagent (Invitrogen). The solutions were combined together and incubated for 15 minutes at room temperature. The DNA-lipid complex was added dropwise to wells of the 24 well plates. Cells were incubated for 3 days at 37° C. and genomic DNA was collected using the GeneJET Genomic DNA Purification Kit (Thermo Scientific). Activity of the gRNAs was quantified by a Surveyor Digest, gel electrophoresis, and densitometry (FIG. 60 and FIG. 61) (Guschin, D. Y., et al., “A Rapid and General Assay for Monitoring Endogenous Gene Modification,” Methods in Molecular Biology, 649: 247-256 (2010)).
# PD1 = PD1 target gene site, 3 days
# Procedure: HEK293T cells were plated out at a density of 1×10^5 cells per well in a 24 well plate. 150 uL of Opti-MEM medium was combined with 1.5 ug of gRNA plasmid, 1.5 ug of Cas9 plasmid. Another 150 uL of Opti-MEM medium was combined with 5 ul of Lipofectamine 2000 Transfection reagent (Invitrogen). The solutions were combined together and incubated for 15 minutes at room temperature. […] Cells were incubated for 3 days at 37° C. and genomic DNA was collected using the GeneJET Genomic DNA Purification Kit (Thermo Scientific). Activity of the gRNAs was quantified by a Surveyor Digest, gel electrophoresis, and densitometry (FIG. 60 and FIG. 61) (Guschin, D. Y., et al., “A Rapid and General Assay for Monitoring Endogenous Gene Modification,” Methods in Molecular Biology, 649: 247-256 (2010)).
# CTLA4 = CTLA4 target gene site, 3 days
# Procedure: as §1
molecule,measurement,setting,value
CCR5 gRNA#2: sense primer SEQ ID 63 CACCGTCATCCTCCTGACAATCGAT,"efficiency of Cas9/gRNA pair in creating double strand break (DSB), percent of gene modifications",CCR5,>60%
PD1 gRNA#2: sense primer SEQ ID 35 CACCGCCTGCTCGTGGTGACCGAAG,"efficiency of Cas9/gRNA pair in creating double strand break (DSB), percent of gene modifications",PD1,>60%
"CTLA4 gRNA#3: sense primer (SEQ ID printed 'Si') … (nucleic acid, 2'-O-methyl 3'-phosphorothioate modifications added, positions not given here) guide: GCTAGATGATTCCATCTGCACGUUUUAGAGCUAGAAAUAGCAAGUUAAAAUAAGGCUAGUCCGUUAUCAACUUGAAAAAGUGGCACCGAGUCGGUGCUUUU","efficiency of Cas9/gRNA pair in creating double strand break (DSB), percent of gene modifications",CTLA4,39.33%
